This experiment deals with T1, human VR1 (Homo sapiens, UniProt Q8NER1).
T1 construct: expressed in transfected cells
Description: FLIPR Calcium 3 calcium flux assay (headed Vanilloid Receptor Binding Assay), antagonist activity against capsaicin. The format is cell-based. The following applies: Chinese hamster ovary cells expressing human VR1; for inhibition at 10 µM: 10 min, highest concentration of 10 μM, read-out: TRPV1 % Mean effect at 10 μM concentration; for EC50: antagonist activity vs 30 nM capsaicin, read-out: TRPV1 pEC50 (converted). The source says: Methods to construct such recombinant cell lines are well known in the art (Sambrook et al., Molecular Cloning: a Laboratory Manual, Cold Spring Harbor Laboratory Press, Cold Spring Harbor, 2000). The compounds of the invention are thus useful in the treatment of TRPV1 mediated disorders, such as in the treatment of acute and chronic pain disorders, acute and chronic neuropathic pain, acute and chronic inflammatory pain, respiratory diseases and in lower urinary tract disorders.
Test compounds were prepared as stock solution in dimethylsulfoxide and tested for activity over several log units (ranging 100 μM-100 pM). Compounds were further diluted in assay buffer as necessary for IC50 determination.
Chinese hamster ovary cells expressing human VR1 were grown in DMEM/F12 50/50 Mix (Mediatech, Inc., Herndon, Va., USA), supplemented with 10% FetalClone II (Hyclone, Logan, Utah, USA), 1% GlutaMax (Invitrogen Corp., Carlsbad, Calif., USA), 1% Pen/Strep (Mediatech) and 0.4 mg/ml G418 (Mediatech). The day before the assay, cells were seeded into 384-well tissue culture-treated black plates with clear bottoms (Corning, Inc., Corning, N.Y., USA), at 10,000 viable cells/well in 50 μl/well of medium containing no G418.
On the day of the assay, which is the FLIPR® Calcium 3 Assay commercially available from Molecular Devices Corp., Sunnyvale, Calif. USA, the plating medium was removed and replaced with 25 μl/well 1× Calcium 3 Assay kit dye, prepared in VR1 Buffer (160 mM NaCl, 4.5 mM KCl, 10 mM HEPES, 10 mM Glucose, 2 mM CaCl2, 1 mM MgCl2 and 0.5 mM Probenecid). After 1 hour incubation at room temperature, the plates were loaded into the FLIPR (Molecular Devices, Corp.), which adds 12.5 μl of test compound in VR1 Buffer containing 4% dimethylsulfoxide and reads the subsequent change in the fluorescence of the cells to monitor agonist activity. Ten minutes after compound addition, the plates were reloaded into the FLIPR, which adds 12.5 μl of 30 nM capsaicin in VR1 Buffer and reads the subsequent change in the fluorescence of the cells to monitor antagonist activity. In this way, the same assay was used to assess both the agonist activity and antagonist activity of test compounds.
(In general: A change in cytosolic calcium serves as a functional read-out for many receptors and channels.)

SMILES strings stand for the structures.

T1 sequence (Q8NER1 whole entry): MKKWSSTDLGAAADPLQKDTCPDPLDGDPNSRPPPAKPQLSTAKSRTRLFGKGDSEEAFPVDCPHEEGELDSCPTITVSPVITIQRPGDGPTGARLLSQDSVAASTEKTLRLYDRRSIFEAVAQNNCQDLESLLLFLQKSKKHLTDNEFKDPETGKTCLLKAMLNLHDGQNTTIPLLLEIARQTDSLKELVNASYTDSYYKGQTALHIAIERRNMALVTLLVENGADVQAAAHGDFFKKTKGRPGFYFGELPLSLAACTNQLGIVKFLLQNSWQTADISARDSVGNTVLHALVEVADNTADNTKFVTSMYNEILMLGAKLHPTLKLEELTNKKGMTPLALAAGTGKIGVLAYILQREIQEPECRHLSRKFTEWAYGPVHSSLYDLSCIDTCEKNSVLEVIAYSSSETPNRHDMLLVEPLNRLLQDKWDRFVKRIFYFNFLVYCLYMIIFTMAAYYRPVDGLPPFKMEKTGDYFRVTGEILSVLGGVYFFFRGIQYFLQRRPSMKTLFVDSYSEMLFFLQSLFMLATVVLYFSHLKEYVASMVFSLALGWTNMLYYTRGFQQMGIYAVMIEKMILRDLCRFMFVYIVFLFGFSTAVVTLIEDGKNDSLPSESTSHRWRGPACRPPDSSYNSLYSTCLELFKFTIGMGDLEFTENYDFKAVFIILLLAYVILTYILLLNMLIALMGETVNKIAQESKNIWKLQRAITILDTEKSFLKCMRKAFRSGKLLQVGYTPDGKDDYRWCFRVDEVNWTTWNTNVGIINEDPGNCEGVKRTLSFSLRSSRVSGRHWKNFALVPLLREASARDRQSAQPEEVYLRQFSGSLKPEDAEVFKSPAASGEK

For `O=C(NC1CCCC1)c1noc(-c2ccc(C(F)(F)F)cc2)c1F`, the inhibition at 10 µM stood at 96% and the EC50 was 31.6 nM. For the compound `O=C(NC1CCCC1)c1noc(-c2ccc(C(F)(F)F)cc2)c1Br`, the inhibition at 10 µM was found to be 67% and the EC50 was 10 nM. For `Cc1c(C(=O)NC2CCCC2)noc1-c1ccc(C(F)(F)F)cc1`, the inhibition at 10 µM is 101% and the EC50 is 39.8 nM. On the same counts, the results for `CCCc1c(C(=O)CC2CCCC2)noc1-c1ccc(C(F)(F)F)cc1` are 98% and 100 nM.

With `O=C(NC1CCOCC1)c1noc(-c2ccc(C(F)(F)F)cc2)c1Cl`, the inhibition at 10 µM stood at 89% and the EC50 was 31.6 nM. On the same counts, the results for `O=C(NC1CCCC1)c1noc(-c2ccc(F)cc2)c1Cl` are 98% and 100 nM. With `O=C(NC1CCCCC1)c1noc(-c2ccc(Cl)cc2)c1Cl`, the inhibition at 10 µM was 88% and the EC50 was 63.1 nM. On the same counts, the results for `O=C(Nc1cccc(CO)c1)c1noc(-c2ccc(C(F)(F)F)c(F)c2)c1Cl` are 103% and 31.6 nM. `Cc1c(C(=O)NC2CCOCC2)noc1-c1ccc(C(F)(F)F)c(F)c1`: the inhibition at 10 µM came out at 99% and the EC50 was 12.6 nM.

On to `CC[C@H](CO)NC(=O)c1noc(-c2ccc(C(F)(F)F)c(F)c2)c1C`, for which the inhibition at 10 µM came to 99% and the EC50 was 63.1 nM. As for `Cc1c(C(=O)N[C@@H](C)C(C)C)noc1-c1ccc(C(F)(F)F)c(F)c1`, the inhibition at 10 µM stood at 103% and the EC50 was 100 nM. Take `O=C(NC1CCCC1)c1noc(-c2ccc(C(F)(F)F)cc2)c1Cl`: the inhibition at 10 µM was 90% and the EC50 was 3.98 nM.

Take `O=C(NC1CCCC1)c1noc(-c2ccc(Cl)cc2)c1Cl`: the inhibition at 10 µM was found to be 102% and the EC50 is 15.8 nM. As for `CCCC(C)NC(=O)c1noc(-c2ccc(Cl)cc2)c1Cl` (centres unmarked), the inhibition at 10 µM is 89% and the EC50 was 158 nM. For `O=C(NC1CCCC1)c1cc(-c2ccc(C(F)(F)F)cc2)on1`, the inhibition at 10 µM amounted to 97% and the EC50 was 501 nM. Take `O=C(NC1CCCC1)c1cc(-c2ccc(Cl)cc2)on1`: the inhibition at 10 µM stood at 17%. On to `CCCC(C)NC(=O)c1cc(-c2ccc(Cl)cc2)on1` (centres unmarked), for which the inhibition at 10 µM worked out at 50%.

(Values after patent publication US8211927B2, “5-phenyl-isoxazole-3-carboxamide derivatives as TRPV1 modulators” (MSD, Oss B.V., priority 2007, dated 2012).)
